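Test compounds were applied to cells in 96-well plates for 48 hours at 5 doses. Abbreviation: GI50, concentration required for 50% inhibition of growth.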 Active and inactive are the calls of the source. No stated cut-off is given here; in the data, active = GI50 up to about 1.1 µM and inactive = higher.
Experiments:
Test in all cases: NCI tumour cell line growth inhibition, 48 h
786-0 = system: 786-0
OVCAR-5 = system: OVCAR-5
SF-295 = system: SF-295
OVCAR-8 = system: OVCAR-8
EKVX = system: EKVX
SN12C = system: SN12C
SF-268 = system: SF-268
UACC-62 = system: UACC-62
KM12 = system: KM12
DU-145 = system: DU-145
Malme-3M = system: Malme-3M
SK-MEL-2 = system: SK-MEL-2
HCT-116 = system: HCT-116
HCC 2998 = system: HCC 2998
SR = system: SR
CCRF-CEM = system: CCRF-CEM
NCI-H522 = system: NCI-H522
NCI/ADR-RES = system: NCI/ADR-RES
ACHN = system: ACHN
NCI-H23 = system: NCI-H23
DMS-114 = system: DMS-114
M19-MEL = system: M19-MEL
SK-OV-3 = system: SK-OV-3
SF-539 = system: SF-539
RXF 393 = system: RXF 393
IGROV-1 = system: IGROV-1
MCF7 = system: MCF7
SNB-78 = system: SNB-78
HOP-62 = system: HOP-62
SNB-19 = system: SNB-19
MDA-N = system: MDA-N
A498 = system: A498
RXF 631 = system: RXF 631
SK-MEL-28 = system: SK-MEL-28
HT-29 = system: HT-29
LXFL 529 = system: LXFL 529
SW-620 = system: SW-620
COLO 205 = system: COLO 205
SK-MEL-5 = system: SK-MEL-5
DMS-273 = system: DMS-273
Hs-578T = system: Hs-578T
CAKI-1 = system: CAKI-1
NCI-H226 = system: NCI-H226
OVCAR-4 = system: OVCAR-4
T47D = system: T47D
HOP-92 = system: HOP-92
OVCAR-3 = system: OVCAR-3
DLD-1 = system: DLD-1
MDA-MB-435 = system: MDA-MB-435
U-251 = system: U-251
A549 = system: A549
K562 = system: K562
KM-20L2 = system: KM-20L2
BT-549 = system: BT-549
LOX IMVI = system: LOX IMVI
TK-10 = system: TK-10
MOLT-4 = system: MOLT-4
MDA-MB-231 = system: MDA-MB-231
PC-3 = system: PC-3
M14 = system: M14
NCI-H460 = system: NCI-H460
HL-60 = system: HL-60
SNB-75 = system: SNB-75
UACC-257 = system: UACC-257
RPMI-8226 = system: RPMI-8226
UO-31 = system: UO-31
HCT-15 = system: HCT-15
XF498 = system: XF498
HOP-18 = system: HOP-18

Measured: GI50

COC1=CC(=O)c2c(ccc3ncnc(N)c23)C1=O
inactive: 786-0 1.78 µM | OVCAR-5 2 µM | SF-295 3.62 µM | OVCAR-8 2.11 µM | EKVX 2.04 µM | SN12C 1.87 µM | SF-268 2.47 µM | UACC-62 1.81 µM | KM12 4.41 µM | DU-145 1.82 µM | Malme-3M 2.63 µM | SK-MEL-2 3.03 µM | HCT-116 1.77 µM | HCC 2998 6.03 µM | NCI-H522 2.42 µM | NCI/ADR-RES 2.31 µM | ACHN 1.57 µM | NCI-H23 1.54 µM | DMS-114 1.77 µM | M19-MEL 1.69 µM | SK-OV-3 6.28 µM | SF-539 1.61 µM | RXF 393 1.79 µM | IGROV-1 1.73 µM | MCF7 1.54 µM | SNB-78 2.36 µM | HOP-62 3.56 µM | SNB-19 2.38 µM | A498 2.22 µM | RXF 631 4.82 µM | SK-MEL-28 2.36 µM | HT-29 2.1 µM | LXFL 529 1.75 µM | SW-620 1.93 µM | COLO 205 3.58 µM | SK-MEL-5 1.64 µM | DMS-273 3.32 µM | Hs-578T 3.3 µM | CAKI-1 1.36 µM | NCI-H226 2.2 µM | HOP-92 1.63 µM | OVCAR-3 1.48 µM | DLD-1 2.08 µM | U-251 1.74 µM | A549 4.05 µM | KM-20L2 18.8 µM | BT-549 1.79 µM | TK-10 3.13 µM | MDA-MB-231 1.19 µM | PC-3 2.32 µM | M14 1.88 µM | NCI-H460 4.29 µM | SNB-75 3.57 µM | UACC-257 1.66 µM | RPMI-8226 1.45 µM | UO-31 2.31 µM
1.99 µM: HCT-15
active: SR 0.164 µM | CCRF-CEM 0.665 µM | MDA-N 0.288 µM | OVCAR-4 0.561 µM | T47D 1.11 µM | MDA-MB-435 0.233 µM | K562 0.659 µM | LOX IMVI 1.03 µM | MOLT-4 0.573 µM | HL-60 0.57 µM

CC1CC#CCOC(=O)CCCC1=O (stereo not given)
inactive: 786-0 > 100 µM | SF-295 > 100 µM | OVCAR-8 > 100 µM | SN12C > 100 µM | SF-268 > 100 µM | UACC-62 > 100 µM | KM12 > 100 µM | HCT-116 > 100 µM | HCC 2998 > 100 µM | CCRF-CEM > 100 µM | NCI-H522 > 100 µM | XF498 > 100 µM | NCI-H23 > 100 µM | DMS-114 > 100 µM | M19-MEL > 100 µM | SK-OV-3 > 100 µM | SF-539 > 100 µM | RXF 393 > 100 µM | IGROV-1 > 100 µM | SNB-78 > 100 µM | HOP-62 > 100 µM | SNB-19 > 100 µM | SK-MEL-28 > 100 µM | HT-29 > 100 µM | LXFL 529 > 100 µM | SW-620 > 100 µM | COLO 205 > 100 µM | SK-MEL-5 > 100 µM | DMS-273 > 100 µM | NCI-H226 > 100 µM | OVCAR-4 > 100 µM | OVCAR-3 > 100 µM | DLD-1 > 100 µM | U-251 > 100 µM | A549 > 100 µM | K562 > 100 µM | KM-20L2 > 100 µM | LOX IMVI > 100 µM | TK-10 > 100 µM | HOP-18 > 100 µM | MOLT-4 > 100 µM | M14 > 100 µM | NCI-H460 > 100 µM | HL-60 > 100 µM | SNB-75 > 100 µM | RPMI-8226 > 100 µM

COC1CCC2C(NS(=O)(=O)c3ccc(C)cc3)CCCC2O1.Cc1ccc(S(=O)(=O)NC(C)(C)C=O)cc1 (stereo not given)
inactive: 786-0 19.9 µM | OVCAR-5 > 34.5 µM | SF-295 8.51 µM | OVCAR-8 16.1 µM | EKVX 31 µM | SN12C 23.5 µM | SF-268 > 34.5 µM | UACC-62 33 µM | KM12 12.4 µM | Malme-3M 23 µM | SK-MEL-2 > 34.5 µM | HCT-116 7.33 µM | HCC 2998 33.5 µM | CCRF-CEM 10.2 µM | NCI-H522 9.02 µM | ACHN 24.8 µM | NCI-H23 11.1 µM | DMS-114 9.31 µM | M19-MEL 12.7 µM | SK-OV-3 > 34.5 µM | SF-539 20 µM | RXF 393 11.4 µM | IGROV-1 16.4 µM | SNB-78 > 34.5 µM | HOP-62 20.8 µM | SNB-19 16.1 µM | A498 > 34.5 µM | RXF 631 10.2 µM | SK-MEL-28 30 µM | HT-29 11.4 µM | SW-620 > 34.5 µM | SK-MEL-5 7.76 µM | DMS-273 8.41 µM | CAKI-1 20.3 µM | NCI-H226 10.3 µM | OVCAR-4 12.6 µM | HOP-92 3.66 µM | OVCAR-3 13 µM | DLD-1 20.3 µM | U-251 > 34.5 µM | A549 16.2 µM | K562 9.68 µM | KM-20L2 32.6 µM | LOX IMVI 5.62 µM | TK-10 18.1 µM | MOLT-4 8.3 µM | M14 16.7 µM | NCI-H460 11.6 µM | HL-60 8.18 µM | SNB-75 25 µM | UACC-257 3.29 µM | RPMI-8226 6.21 µM | UO-31 15 µM
15.6 µM: HCT-15

CS(=O)(=O)OCCN(CCOS(C)(=O)=O)c1ccc(C=O)cc1
inactive: OVCAR-5 3.5 µM | OVCAR-8 7.35 µM | EKVX 7.05 µM | SN12C 3.68 µM | SF-268 2.95 µM | UACC-62 1.27 µM | KM12 10.4 µM | Malme-3M 8.77 µM | SK-MEL-2 17.1 µM | HCT-116 31.4 µM | HCC 2998 2.17 µM | NCI/ADR-RES 7.1 µM | XF498 1.97 µM | NCI-H23 1.63 µM | DMS-114 8.05 µM | M19-MEL 12.6 µM | SK-OV-3 1.14 µM | SF-539 2.18 µM | IGROV-1 12.8 µM | MCF7 4.7 µM | SNB-78 27.2 µM | HOP-62 1.43 µM | SNB-19 4.22 µM | MDA-N 8.95 µM | A498 1.74 µM | SK-MEL-28 17.1 µM | HT-29 3.96 µM | LXFL 529 18.1 µM | SW-620 14.9 µM | COLO 205 1.81 µM | SK-MEL-5 6.27 µM | Hs-578T 14.3 µM | NCI-H226 1.84 µM | OVCAR-4 13 µM | T47D 5.92 µM | HOP-92 12.5 µM | OVCAR-3 5.12 µM | DLD-1 18.5 µM | MDA-MB-435 10.3 µM | U-251 8.07 µM | A549 2.89 µM | K562 20.1 µM | KM-20L2 3.28 µM | BT-549 13 µM | LOX IMVI 5.08 µM | TK-10 2.94 µM | HOP-18 9.16 µM | MDA-MB-231 21.4 µM | PC-3 19.4 µM | M14 4.55 µM | HL-60 2.07 µM | SNB-75 1.87 µM | UACC-257 8.32 µM | RPMI-8226 8.63 µM
9.84 µM: HCT-15
active: 786-0 0.365 µM | SF-295 0.774 µM | DU-145 0.505 µM | SR 0.236 µM | CCRF-CEM 0.897 µM | NCI-H522 0.195 µM | ACHN 0.346 µM | RXF 393 0.432 µM | DMS-273 0.314 µM | CAKI-1 0.427 µM | MOLT-4 0.233 µM | NCI-H460 0.0518 µM | UO-31 1.11 µM
